Experimental data reported in US20080318943A1, “Compounds and Uses Thereof - 848” (ASTRAZENECA AB, priority 2007, published 2008).

Columns and labels:
[1] = target: T1, GABAA receptor α2β3γ2 (Homo sapiens, UniProt P18507+P47869); test: Two-electrode voltage-clamp potentiation of GABA EC10 current in Xenopus oocytes, GABAA2; type: cell-based; conditions: percentage potentiation of GABA EC10 current divided by that of diazepam
T1 construct: expressed in transfected cells; host or cells: Xenopus laevis oocytes injected with cRNA
T1 sequence (P47869 29-451): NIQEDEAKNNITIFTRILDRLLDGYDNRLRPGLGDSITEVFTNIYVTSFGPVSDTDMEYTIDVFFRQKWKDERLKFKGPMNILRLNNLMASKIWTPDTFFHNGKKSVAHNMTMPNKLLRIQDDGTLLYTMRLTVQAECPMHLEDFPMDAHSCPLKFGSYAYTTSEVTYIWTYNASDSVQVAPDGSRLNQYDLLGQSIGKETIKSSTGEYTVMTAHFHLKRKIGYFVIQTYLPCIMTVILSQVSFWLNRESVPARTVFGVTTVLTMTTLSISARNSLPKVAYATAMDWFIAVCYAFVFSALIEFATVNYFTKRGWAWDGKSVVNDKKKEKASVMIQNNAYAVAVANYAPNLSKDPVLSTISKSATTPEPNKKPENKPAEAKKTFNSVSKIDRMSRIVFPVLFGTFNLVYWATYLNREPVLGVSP
T1 sequence (P28472 26-473 partner): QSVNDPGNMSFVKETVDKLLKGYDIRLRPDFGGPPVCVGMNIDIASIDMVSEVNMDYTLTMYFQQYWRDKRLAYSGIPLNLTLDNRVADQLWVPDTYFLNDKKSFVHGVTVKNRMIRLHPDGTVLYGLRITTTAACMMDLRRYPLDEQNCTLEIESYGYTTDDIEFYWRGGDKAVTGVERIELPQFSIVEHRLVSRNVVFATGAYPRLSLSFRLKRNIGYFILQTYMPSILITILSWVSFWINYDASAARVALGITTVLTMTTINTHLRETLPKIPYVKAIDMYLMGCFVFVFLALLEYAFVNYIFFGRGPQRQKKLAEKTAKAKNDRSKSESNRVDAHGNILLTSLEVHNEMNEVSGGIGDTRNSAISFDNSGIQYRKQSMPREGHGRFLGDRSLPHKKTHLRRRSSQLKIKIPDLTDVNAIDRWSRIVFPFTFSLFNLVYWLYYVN
T1 sequence (P18507 40-475): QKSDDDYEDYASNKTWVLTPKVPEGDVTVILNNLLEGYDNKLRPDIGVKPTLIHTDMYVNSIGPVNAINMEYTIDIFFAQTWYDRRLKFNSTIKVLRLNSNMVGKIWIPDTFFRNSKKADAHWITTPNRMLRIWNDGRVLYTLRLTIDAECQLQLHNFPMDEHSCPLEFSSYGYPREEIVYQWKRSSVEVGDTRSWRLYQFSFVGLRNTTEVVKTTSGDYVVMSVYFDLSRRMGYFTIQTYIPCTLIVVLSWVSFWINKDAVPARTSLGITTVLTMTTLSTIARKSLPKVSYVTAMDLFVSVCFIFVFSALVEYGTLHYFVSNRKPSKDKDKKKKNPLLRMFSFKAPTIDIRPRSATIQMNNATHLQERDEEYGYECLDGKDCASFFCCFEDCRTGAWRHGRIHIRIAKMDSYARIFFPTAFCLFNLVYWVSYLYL
In short: (§1)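 Human GABAA receptors expressed in Xenopus oocytes by cRNA injection (α:β:γ molar ratio ~1:1:10 for α1β2γ2, 1:1:1 for α2β3γ2), recorded 2-10 days later by two-electrode voltage clamp at −60 mV in ND-96, pH 7.5. Modulator preapplied 30 s before GABA at per-oocyte EC10. Peak-current percent potentiation over GABA alone, normalised to diazepam.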

[2] = target: T2, GABAA2 receptors (α2, β3, γ2 receptor subunits transfected into Sf9 cells) (Homo sapiens, UniProt P18507+P47869); test: GABAA2 Binding Method ([3H]-Flunitrazepam displacement); conditions: [3H]-Flunitrazepam ~2 nM, α2β3γ2 Sf9 membranes, 1 hr at 4° C.
T2 construct: host or cells: Sf9 cells (membranes)
T2 sequence (P47869 29-451): as the sequence (P47869 29-451) above
T2 sequence (P28472 26-473 partner): as the sequence (P28472 26-473 partner) above
T2 sequence (P18507 40-475): as the sequence (P18507 40-475) above
In short: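 Membranes from Sf9 cells expressing α2β3γ2 GABAA receptors incubated with ~2 nM (final) [3H]-flunitrazepam and test compound 1 h at 4 °C, then filtered on GF/B plates with cold-buffer washes. Flumazenil-defined controls; percent of control, IC50 and Ki calculated.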

[3] = target: T3, GABAA receptor α1β2γ2 (Homo sapiens, UniProt P14867+P18507); test: Two-electrode voltage-clamp potentiation of GABA EC10 current in Xenopus oocytes, GABAA1; type: cell-based; conditions: percentage potentiation of GABA EC10 current divided by that of diazepam
T3 construct: expressed in transfected cells; host or cells: Xenopus laevis oocytes injected with cRNA
T3 sequence (P14867 28-456): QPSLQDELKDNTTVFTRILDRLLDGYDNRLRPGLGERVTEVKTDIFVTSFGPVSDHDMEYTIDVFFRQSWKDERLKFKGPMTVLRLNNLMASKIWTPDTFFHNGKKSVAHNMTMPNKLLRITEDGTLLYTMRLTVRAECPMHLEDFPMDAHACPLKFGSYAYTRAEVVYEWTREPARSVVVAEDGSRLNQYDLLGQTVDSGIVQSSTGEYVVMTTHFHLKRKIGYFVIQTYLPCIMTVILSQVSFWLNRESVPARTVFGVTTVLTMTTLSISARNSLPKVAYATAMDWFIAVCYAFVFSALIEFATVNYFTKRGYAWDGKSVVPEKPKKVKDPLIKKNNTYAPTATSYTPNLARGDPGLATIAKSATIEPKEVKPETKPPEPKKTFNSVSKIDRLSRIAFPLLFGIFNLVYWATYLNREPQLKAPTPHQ
T3 sequence (P47870 25-512 partner limits assumed): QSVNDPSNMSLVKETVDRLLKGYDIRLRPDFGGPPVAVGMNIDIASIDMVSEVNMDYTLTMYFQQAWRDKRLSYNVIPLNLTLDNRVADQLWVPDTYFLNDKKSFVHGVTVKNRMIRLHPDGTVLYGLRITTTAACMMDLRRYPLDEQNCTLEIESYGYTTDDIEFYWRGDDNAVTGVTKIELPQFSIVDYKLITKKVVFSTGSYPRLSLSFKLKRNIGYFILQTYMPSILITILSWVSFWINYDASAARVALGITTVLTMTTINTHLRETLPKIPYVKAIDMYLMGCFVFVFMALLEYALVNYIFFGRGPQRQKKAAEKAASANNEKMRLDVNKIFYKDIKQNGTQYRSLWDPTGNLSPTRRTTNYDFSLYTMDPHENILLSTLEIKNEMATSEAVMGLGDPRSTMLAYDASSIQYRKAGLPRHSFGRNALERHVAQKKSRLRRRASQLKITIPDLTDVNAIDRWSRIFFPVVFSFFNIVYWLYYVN
T3 sequence (P18507 40-475): as the sequence (P18507 40-475) above
In short: as §1

[4] = listed as 9-amino-6-fluoro-5-(2-fluoro-6-methoxyphenyl)-2-methyl-2,3-dihydro-1H-pyrrolo[3

COc1ccc(Cl)cc1-c1cccc2c(N)c3c(nc12)CN(C1CCC1)C3=O [Example 49, 9-Amino-5-(5-chloro-2-methoxyphenyl)-2-cyclobutyl-2,3-dihydropyrrolo[3,4-b]quinolin-1-one]
Relative Potentiation for GABAA2 [1]: 0.58 | Ki [2]: 2.53 nM | Relative Potentiation for GABAA1 [3]: 0.12

COc1ccc(-c2cccc3c(N)c4c(nc23)CN(C2CCC2)C4=O)c(OC)c1 [Example 53, 9-Amino-2-cyclobutyl-5-(2,4-dimethoxyphenyl)-2,3-dihydropyrrolo[3,4-b]quinolin-1-one]
Relative Potentiation for GABAA2 [1]: 0.24 | Ki [2]: 2.13 nM | Relative Potentiation for GABAA1 [3]: 0.1

CCCN1Cc2nc3c(-c4c(F)cccc4F)cccc3c(N)c2C1=O [Example 56, 9-Amino-5-(2,6-difluorophenyl)-2-propyl-2,3-dihydro-pyrrolo[3,4-b]quinolin-1-one]
Relative Potentiation for GABAA2 [1]: 0.24 | Ki [2]: 4.98 nM | Relative Potentiation for GABAA1 [3]: 0.083

CCN1Cc2nc3c(-c4cnccc4OC)cccc3c(N)c2C1=O [Example 57, 9-Amino-2-ethyl-5-(4-methoxypyridin-3-yl)-2,3-dihydropyrrolo[3,4-b]quinolin-1-one]
Relative Potentiation for GABAA2 [1]: 0.26 | Ki [2]: 21.4 nM | Relative Potentiation for GABAA1 [3]: 0.079

CCN1Cc2nc3c(-c4cccnc4OC)c(F)ccc3c(N)c2C1=O [Example 58, 9-Amino-2-ethyl-6-fluoro-5-(2-methoxypyridin-3-yl)-2,3-dihydropyrrolo[3,4-b]quinolin-1-one]
Relative Potentiation for GABAA2 [1]: 0.28 | Ki [2]: 4.08 nM | Relative Potentiation for GABAA1 [3]: −0.055

Nc1c2c(nc3c(-c4cc(Cl)ccc4Cl)cccc13)CN(C1CC1)C2=O [Example 59, 9-Amino-2-cyclopropyl-5-(2,5-dichlorophenyl)-2,3-dihydropyrrolo[3,4-b]quinolin-1-one]
Relative Potentiation for GABAA2 [1]: 0.25 | Ki [2]: 11.4 nM | Relative Potentiation for GABAA1 [3]: 0.094

COc1ccc(F)c(-c2cccc3c(N)c4c(nc23)CN(C2CC2)C4=O)c1 [Example 60, 9-Amino-2-cyclopropyl-5-(2-fluoro-5-methoxyphenyl)-2,3-dihydropyrrolo[3,4-b]quinolin-1-one]
Relative Potentiation for GABAA2 [1]: 0.33 | Ki [2]: 13.8 nM | Relative Potentiation for GABAA1 [3]: 0.079

COc1ccc(F)cc1-c1c(F)ccc2c(N)c3c(nc12)CN(C1CC1)C3=O [Example 61, 9-Amino-2-cyclopropyl-6-fluoro-5-(5-fluoro-2-methoxyphenyl)-2,3-dihydropyrrolo[3,4-b]quinolin-1-one]
Relative Potentiation for GABAA2 [1]: 0.23 | Ki [2]: 7.4 nM | Relative Potentiation for GABAA1 [3]: 0.08

COc1ccncc1-c1cccc2c(N)c3c(nc12)CN(C1CCC1)C3=O [Example 62, 9-Amino-2-cyclobutyl-5-(4-methoxypyridin-3-yl)-2,3-dihydropyrrolo[3,4-b]quinolin-1-one]
Relative Potentiation for GABAA2 [1]: 0.44 | Ki [2]: 1.84 nM | Relative Potentiation for GABAA1 [3]: 0.09

COc1ccccc1-c1cccc2c(N)c3c(nc12)CN(C1CCC1)C3=O [Example 63, 9-Amino-2-cyclobutyl-5-(2-methoxyphenyl)-2,3-dihydropyrrolo[3,4-b]quinolin-1-one]
Relative Potentiation for GABAA2 [1]: 0.25 | Ki [2]: 3.52 nM | Relative Potentiation for GABAA1 [3]: 0.038

COc1ccc(-c2cccc3c(N)c4c(nc23)CN(C2CCC2)C4=O)c(OC)n1 [Example 64, 9-Amino-2-cyclobutyl-5-(2,6-dimethoxypyridin-3-yl)-2,3-dihydropyrrolo[3,4-b]quinolin-1-one]
Relative Potentiation for GABAA2 [1]: 0.31 | Ki [2]: 3.81 nM | Relative Potentiation for GABAA1 [3]: 0.06

COc1ccc(CN2Cc3nc4c(-c5c(F)cccc5OC)cccc4c(N)c3C2=O)cc1OC [Example 65, 9-Amino-2-(3,4-dimethoxybenzyl)-5-(2-fluoro-6-methoxyphenyl)-2,3-dihydropyrrolo[3,4-b]quinolin-1-one]
Relative Potentiation for GABAA2 [1]: 0.2 | Ki [2]: 2.68 nM | Relative Potentiation for GABAA1 [3]: 0.092

COc1ncccc1-c1cccc2c(N)c3c(nc12)CN(C1CC1)C3=O [Example 66, 9-Amino-2-cyclopropyl-5-(2-methoxypyridin-3-yl)-2,3-dihydropyrrolo[3,4-b]quinolin-1-one]
Relative Potentiation for GABAA2 [1]: 0.33 | Ki [2]: 35.1 nM | Relative Potentiation for GABAA1 [3]: 0.056

COc1cccc(F)c1-c1c(F)ccc2c(N)c3c(nc12)CN(C)C3=O [Example 70, 9-Amino-6-fluoro-5-(2-fluoro-6-methoxyphenyl)-2-methyl-2,3-dihydropyrrolo[3,4-b]quinolin-1-one]
Relative Potentiation for GABAA2 [1, 4]: 0.16 | Ki [2]: 8.11 nM | Relative Potentiation for GABAA1 [3, 4]: 0.02

CCN1Cc2nc3c(-c4cc(OC)ccc4F)cccc3c(N)c2C1=O [Example 72, 9-Amino-2-ethyl-5-(2-fluoro-5-methoxyphenyl)-2,3-dihydropyrrolo[3,4-b]quinolin-1-one]
Relative Potentiation for GABAA2 [1]: 0.12 | Ki [2]: 13.3 nM | Relative Potentiation for GABAA1 [3]: 0.02

N#Cc1ccccc1-c1cccc2c(N)c3c(nc12)CN(C1CCC1)C3=O [Example 76, 2-(9-Amino-2-cyclobutyl-1-oxo-2,3-dihydro-1H-pyrrolo[3,4-b]quinolin-5-yl)benzonitrile]
Relative Potentiation for GABAA2 [1]: 0.12 | Ki [2]: 0.973 nM | Relative Potentiation for GABAA1 [3]: −0.036

COc1cc(-c2cccc3c(N)c4c(nc23)CN(C2CCC2)C4=O)c(OC)nn1 [Example 84, 9-Amino-2-cyclobutyl-5-(3,6-dimethoxypyradazin-4-yl)-2,3-dihydropyrrolo[3,4-b]quinolin-1-one]
Relative Potentiation for GABAA2 [1]: 0.42 | Ki [2]: 0.74 nM | Relative Potentiation for GABAA1 [3]: 0.088

COc1cc(-c2cccc3c(N)c4c(nc23)CN(C2CCC2)C4=O)c(C#N)cn1 [Example 96, 4-(9-Amino-2-cyclobutyl-1-oxo-2,3-dihydro-1H-pyrrolo[3,4-b]quinolin-5-yl)-6-methoxyniconitrile]
Relative Potentiation for GABAA2 [1]: 0.36 | Ki [2]: 15.3 nM | Relative Potentiation for GABAA1 [3]: 0.066

Cc1nn(C)cc1-c1c(F)ccc2c(N)c3c(nc12)CN([C@@H]1CCOC1)C3=O [Example 97, 9-Amino-5-(1,3-dimethyl-1H-pyrazol-4-yl)-6-fluoro-2-(R)-tetrahydrofuran-3-yl-2,3-dihydropyrrolo[3,4-b]quinolin-1-one]
Relative Potentiation for GABAA2 [1]: 0.35 | Ki [2]: 10.4 nM | Relative Potentiation for GABAA1 [3]: 0.15

COc1ccc(-c2c(F)ccc3c(N)c4c(nc23)CN(C2CCC2)C4=O)c(OC)c1 [Example 100, 9-Amino-2-cyclobutyl-5-(2,4-dimethoxyphenyl)-6-fluoro-2,3-dihydropyrrolo[3,4-b]quinolin-1-one]
Relative Potentiation for GABAA2 [1]: 0.23 | Ki [2]: 0.249 nM | Relative Potentiation for GABAA1 [3]: 0.044

Nc1c2c(nc3c(-c4cc(F)ccc4F)cccc13)CN(C1CC1)C2=O [Example 112, 9-Amino-2-cyclopropyl-5-(2,5-difluorophenyl)-2,3-dihydropyrrolo[3,4-b]quinolin-1-one]
Relative Potentiation for GABAA2 [1]: 0.13 | Ki [2]: 6.83 nM | Relative Potentiation for GABAA1 [3]: −0.034

Nc1c2c(nc3c(-c4c(F)cccc4F)cccc13)CN(C1CC1)C2=O [Example 114, 9-Amino-2-cyclopropyl-5-(2,6-difluorophenyl)-2,3-dihydropyrrolo[3,4-b]quinolin-1-one]
Relative Potentiation for GABAA2 [1]: 0.13 | Ki [2]: 3.5 nM | Relative Potentiation for GABAA1 [3]: −0.058

COc1ccc(-c2cccc3c(N)c4c(nc23)CN(C2CC2)C4=O)c(F)c1 [Example 115, 9-Amino-2-cyclopropyl-5-(2-fluoro-4-methoxyphenyl)-2,3-dihydropyrrolo[3,4-b]quinolin-1-one]
Relative Potentiation for GABAA2 [1]: 0.12 | Ki [2]: 14.5 nM | Relative Potentiation for GABAA1 [3]: −0.05

COc1ncc(-c2cccc3c(N)c4c(nc23)CN(C2CCC2)C4=O)c(OC)n1 [Example 123, 9-Amino-2-cyclobutyl-5-(2,4-dimethoxypyrimidin-5-yl)-2,3-dihydropyrrolo[3,4-b]quinolin-1-one]
Relative Potentiation for GABAA2 [1]: 0.44 | Ki [2]: 4.23 nM | Relative Potentiation for GABAA1 [3]: 0.13 | Relative Potentiation for GABAA1 ([3]; listed as 9-amino-2-cyclobutyl-5-(2,4-dimethoxypyrimidin-5-yl)-2,3-dihydro-1H-pyrrolo[3,4-): 0.12
